Results reported in patent US9365613B2, “Acylated 4-amidino- and -4-guanidinobenzylamines for inhibition of plasma kallikrein” (The Medicines Company (Leipzig) GmbH, priority 2003, dated 2016).

Tests used:
PK = PK (Homo sapiens, UniProt P03952); details: read-out: Ki PK (literature); cited from earlier work
human factor XIIa = target: T1, human factor XIIa (Homo sapiens, UniProt P00748); assay: Inhibitory constants for factor XIIa (substrate H-D-HHT-Gly-Arg-pNA, Chromozym XII); type: biochemical; details: read-out: Ki F XIIa
T1 construct: purchased Haemochrom Diagnostica GmbH, Essen, Germany
Procedure: (§1) The inhibitory effect for the individual enzymes was determined in analogy with a method which has already been described (Stürzebecher et al., J. Med. Chem. 40, 3091-3099, 1997).
(§2) After 3 min, the reaction was terminated by adding 25 μl of acetic acid (50%) and the absorption at […] was determined using a Microplate Reader (Labsystems iEMS Reader MF). The Ki values were determined, in accordance with Dixon (Biochem. J. 55, 170-171, 1953), by means of linear regression and using a computer program. The Ki values are the mean of at least three determinations.
(§3) The inhibition of factor XIa and factor XIIa was determined in an analogous manner. When determining the inhibitory constants for human factor XIa (Haemochrom Diagnostica GmbH, Essen, Germany), H-D-Lys(Z)-Pro-Arg-pNA (Chromozym PCa, Roche Diagnostics GmbH, Mannheim, Germany) was used as the substrate.
H-D-HHT-Gly-Arg-pNA (Chromozym XII, Roche Diagnostics GmbH, Mannheim, Germany) was used as the substrate for measuring the inhibitory constants of human factor XIIa (Haemochrom Diagnostica GmbH, Essen, Germany).

human factor XIa = target: T2, human factor XIa (Homo sapiens, UniProt P03951); assay: Inhibitory constants for factor XIa (substrate H-D-Lys(Z)-Pro-Arg-pNA, Chromozym PCa); type: biochemical; details: read-out: Ki F XIa
T2 construct: purchased Haemochrom Diagnostica GmbH, Essen, Germany
Procedure: as §1, §2, §3

plasma kallikrein (PK) = plasma kallikrein (PK) (Homo sapiens, UniProt P03952); assay: Determining the inhibitory constants: inhibition of PK (substrate Bzl-Pro-Phe-Arg-pNA); type: biochemical; details: Tris buffer pH 8.0, 25° C.; mean of at least three determinations
Procedure: as §1, §2

thrombin = thrombin (UniProt P00735); assay: Inhibitory constants for thrombin; type: biochemical; details: read-out: Ki Thrombin

T2 sequence (P03951 388-625 limits assumed): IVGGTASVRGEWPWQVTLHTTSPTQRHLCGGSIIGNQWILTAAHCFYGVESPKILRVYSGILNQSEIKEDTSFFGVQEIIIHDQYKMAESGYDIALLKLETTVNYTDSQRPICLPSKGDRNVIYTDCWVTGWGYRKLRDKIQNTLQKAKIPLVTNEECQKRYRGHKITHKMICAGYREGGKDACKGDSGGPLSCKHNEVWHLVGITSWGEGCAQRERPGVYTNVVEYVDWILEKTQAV
T2 sequence (P03951 19-387 partner limits assumed): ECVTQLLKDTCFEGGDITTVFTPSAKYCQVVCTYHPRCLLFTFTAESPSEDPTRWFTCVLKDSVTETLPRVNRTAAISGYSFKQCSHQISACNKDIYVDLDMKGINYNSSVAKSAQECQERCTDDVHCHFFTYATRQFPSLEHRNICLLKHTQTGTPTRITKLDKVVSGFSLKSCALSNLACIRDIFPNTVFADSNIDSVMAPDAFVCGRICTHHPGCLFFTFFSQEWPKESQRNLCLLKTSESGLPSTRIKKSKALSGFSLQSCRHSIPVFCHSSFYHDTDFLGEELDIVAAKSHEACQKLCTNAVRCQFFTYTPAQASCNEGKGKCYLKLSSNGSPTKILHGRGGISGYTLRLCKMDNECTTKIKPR
T1 sequence (P00748 373-615 limits assumed, other chains not shown): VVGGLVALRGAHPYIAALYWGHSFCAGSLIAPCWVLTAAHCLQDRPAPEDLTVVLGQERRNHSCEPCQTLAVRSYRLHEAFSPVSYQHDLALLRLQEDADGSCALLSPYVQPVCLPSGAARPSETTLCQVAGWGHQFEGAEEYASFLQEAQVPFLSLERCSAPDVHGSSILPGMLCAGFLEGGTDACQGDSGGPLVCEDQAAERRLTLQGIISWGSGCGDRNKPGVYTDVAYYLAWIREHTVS
PK, sequence (P03952 391-638 limits assumed): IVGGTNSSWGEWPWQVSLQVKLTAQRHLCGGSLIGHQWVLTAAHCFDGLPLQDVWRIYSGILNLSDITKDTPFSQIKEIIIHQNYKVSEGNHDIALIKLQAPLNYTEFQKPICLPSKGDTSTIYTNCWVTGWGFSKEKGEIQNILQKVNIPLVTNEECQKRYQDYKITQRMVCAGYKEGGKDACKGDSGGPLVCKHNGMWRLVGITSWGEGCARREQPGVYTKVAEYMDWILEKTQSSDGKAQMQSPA
PK, sequence (P03952 20-390 partner limits assumed): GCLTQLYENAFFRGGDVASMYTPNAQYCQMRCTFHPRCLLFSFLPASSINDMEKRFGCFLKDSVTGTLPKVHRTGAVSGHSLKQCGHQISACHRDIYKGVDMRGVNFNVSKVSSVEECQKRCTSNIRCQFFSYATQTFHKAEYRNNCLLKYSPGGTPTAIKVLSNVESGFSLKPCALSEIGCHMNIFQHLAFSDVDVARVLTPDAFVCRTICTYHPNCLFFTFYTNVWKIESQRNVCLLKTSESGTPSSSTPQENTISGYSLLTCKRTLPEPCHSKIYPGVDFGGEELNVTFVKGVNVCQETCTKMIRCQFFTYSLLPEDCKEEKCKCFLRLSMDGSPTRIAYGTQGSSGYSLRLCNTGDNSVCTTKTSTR
plasma kallikrein (PK), sequence (P03952 391-638 limits assumed, species assumed): as the sequence (P03952 391-638 limits assumed) above
plasma kallikrein (PK), sequence (P03952 20-390 partner limits assumed, species assumed): as the sequence (P03952 20-390 partner limits assumed) above

Row | SMILES | Ki (human factor XIIa) [µM] | Ki (human factor XIa) [µM] | Ki (plasma kallikrein (PK)) [µM] | Ki (thrombin) [µM] | Ki (PK) [µM]
1 | CC(=O)N[C@H](Cc1ccccc1)C(=O)N1CCC[C@H]1C(=O)N[C@@H](CCCN=C(N)N)B(O)O [DuP 714, Ac-D-Phe-Pro-boroarginine] | – | – | – | – | 0.0016
2 | N=C(N)NCc1cccc(C[C@@H](NS(=O)(=O)Cc2ccccc2)C(=O)NCC(=O)NCc2ccc(C(=N)N)cc2)c1 [Inhibitor 79] | 0.31 | 0.22 | 0.075 | 0.059 | –
3 | N=C(N)NCC[C@@H](NS(=O)(=O)Cc1ccccc1)C(=O)NCC(=O)NCc1ccc(C(=N)N)cc1 [Inhibitor 80] | 0.34 | 0.49 | 0.068 | 2.1 | –
4 | N=C(N)NCCC[C@@H](NS(=O)(=O)Cc1ccccc1)C(=O)NCC(=O)NCc1ccc(C(=N)N)cc1 [Inhibitor 81] | 0.35 | 0.7 | 0.074 | 1.4 | –
5 | N=C(N)NCCCC(C=O)NC(=O)C(Cc1ccccc1)NC(=O)C(Cc1ccccc1)NC(=O)OC12CC3CC(CC(C3)C1)C2 [adamantyloxycarbonyl-D-Phe-Phe-arginal] | – | – | – | – | 0.012
6 | CC(C)(C)C(NC(=O)OC12CC3CC(CC(C3)C1)C2)C(=O)NC(Cc1ccccc1)C(=O)NC(CCCNC(=N)N)C(=O)C(F)(F)F [adamantyloxycarbonyl-D-tert-butylglycine-Phe-Arg-CF3] | – | – | – | – | 0.002

Second part, led by results:

Row | Ki (human factor XIIa) [µM] | Ki (human factor XIa) [µM] | Ki (plasma kallikrein (PK)) [µM] | Ki (thrombin) [µM] | SMILES | Ki (PK) [µM]
7 | 1.4 | 0.33 | 0.1 | 0.023 | N=C(N)c1ccc(CNC(=O)CNC(=O)[C@@H](CC2CCCCC2)NS(=O)(=O)Cc2ccccc2)cc1 [Inhibitor 82] | –
8 | 0.38 | 0.7 | 0.14 | 0.53 | COC(=O)c1ccc(CS(=O)(=O)N[C@H](Cc2cccc(C(=N)N)c2)C(=O)NCC(=O)NCc2ccc(C(=N)N)cc2)cc1 [Inhibitor 84] | –
9 | 21 | 0.4 | 0.22 | 1.2 | N=C(N)c1ccc(CNC(=O)[C@H](CCCCNC(=O)COCC(=O)NCCOCCOCCOCCOCCOCCOCCOCCN)NC(=O)[C@@H](CO)NS(=O)(=O)Cc2ccccc2)cc1 [Inhibitor 88] | –
